Source: US9102674B2, “Substituted naphthyridine and quinoline compounds as MAO inhibitors” (DART NEUROSCIENCE (CAYMAN) LTD., priority 2013, dated 2015)

Target: T1, Human recombinant MAO-B (Homo sapiens, UniProt P27338)
T1 construct: host or cells: insect cells
T1 sequence (P27338 1-520): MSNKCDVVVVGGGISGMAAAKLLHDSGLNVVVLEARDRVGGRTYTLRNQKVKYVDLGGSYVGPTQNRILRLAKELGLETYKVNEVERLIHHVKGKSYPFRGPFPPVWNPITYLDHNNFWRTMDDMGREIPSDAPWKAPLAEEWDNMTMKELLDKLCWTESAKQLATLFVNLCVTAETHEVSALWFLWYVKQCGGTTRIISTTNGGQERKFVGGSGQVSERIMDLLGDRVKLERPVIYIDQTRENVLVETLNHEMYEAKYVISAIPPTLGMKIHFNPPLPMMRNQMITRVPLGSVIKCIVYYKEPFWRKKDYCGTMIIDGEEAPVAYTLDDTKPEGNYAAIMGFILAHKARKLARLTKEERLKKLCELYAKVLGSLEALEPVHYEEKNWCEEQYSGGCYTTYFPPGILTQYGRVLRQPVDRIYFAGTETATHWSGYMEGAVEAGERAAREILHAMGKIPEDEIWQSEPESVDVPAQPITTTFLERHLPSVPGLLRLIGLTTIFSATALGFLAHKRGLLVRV
Experiment: MAO-B enzymatic assay (fluorometric, kynuramine)
Assay type: biochemical
Conditions: human recombinant MAO-B expressed in insect cells; kynuramine substrate; values given as bins; read-out: MAO-B (pEC50) (converted)
Protocol: The MAO enzymatic assay was performed according to the fluorometric method described by Matsumoto and colleagues (Matsumoto et al., Clin. Biochem. 1985, 18, 126-129) with the following modifications. Human recombinant MAO-A and MAO-B expressed in insect cells were used. For both assays, test compound and/or vehicle were preincubated with purified enzyme in phosphate buffer pH 7.4 for 15 minutes at 37° C. The reaction was initiated by addition of […] kynuramine. Following a 60 minute incubation period, the reaction was terminated by the addition of 6 N NaOH. The amount of 4-hydroxyquinoline that formed was determined by spectrofluorimetrically at 325 nm/465 nm.
Results were converted to percent inhibition, and the EC50 (M) for each reaction was determined using the XLfit program from IDBS (ID Business Solutions Ltd., 2 Occam Court, Surrey Research Park, Guildford, Surrey, GU2 7QB UK). The EC50 represents the concentration of a compound where 50% of its maximal effect is observed. The pEC50 is defined as the negative logarithm of the EC50; a higher pEC50 value therefore corresponds to higher potency in the assay.
Representative compounds of the invention were evaluated in the MAO-B enzymatic assay. Typically, the compounds of the invention show MAO-B inhibitory properties at a concentration of 0.1 to 10 μM, typically at 5-100%.
As depicted in the following Table, these inhibitory properties were mirrored by pEC50 values ranging from 5 (meaning 10^−5 M or 10 μM) to greater than 7 (meaning less than 10^−7 M or 0.1 μM).

Row | Structure (SMILES) | EC50 [nM]
1 | CCOC(=O)c1cnc2cc(OCc3ccc(F)cc3)ccc2c1 [Example 2, Ethyl 7-[(4-fluorophenyl)methoxy]quinoline-3-carboxylate] | < 100
2 | NC(=O)Cc1cnc2cc(OCc3ccc(F)c(F)c3)cnc2c1 [Example 80, 2-(7-((3,4-Difluorobenzyl)oxy)-1,5-naphthyridin-3-yl)acetamide] | < 100
3 | NC(=O)Cc1cnc2cc(OCc3ccnc(C(F)(F)F)c3)ccc2c1 [Example 62, 2-(7-((2-(Trifluoromethyl)pyridin-4-yl)methoxy)quinolin-3-yl)acetamide] | < 100
4 | CC(O)c1cnc2cc(OCc3ccc(F)cc3)ccc2c1 (stereo not drawn) [Example 43, 1-(7-((4-Fluorobenzyl)oxy)quinolin-3-yl)ethanol] | < 100
5 | CCOC(=O)c1cnc2cc(OCc3ccc(C)cc3)ccc2c1 [Example 8, Ethyl 7-((4-methylbenzyl)oxy)quinoline-3-carboxylate] | 100 to 1000
6 | NC(=O)Cc1cnc2cc(OCc3ccc(F)cc3)ccc2c1 [Example 58, 2-(7-((4-fluorobenzyl)oxy)quinolin-3-yl)acetamide] | < 100
7 | CCOC(=O)c1cnc2cc(OCc3cc(F)cc(F)c3)ccc2c1 [Example 15, Ethyl 7-((3,5-difluorobenzyl)oxy)quinoline-3-carboxylate] | < 100
8 | CNC(=O)c1cnc2cc(OCc3cccc(Cl)c3)ccc2c1 [Example 46, 7-((3-Chlorobenzyl)oxy)-N-methylquinoline-3-carboxamide] | < 100
9 | CNCCNC(=O)c1cnc2cc(OCc3cccc(Cl)c3)ccc2c1 [Example 48, 7-((3-Chlorobenzyl)oxy)-N-(2-(methylamino)ethyl)quinoline-3-carboxamide] | 100 to 1000
10 | CC(C)(F)c1cnc2cc(OCc3ccc(F)cc3)ccc2c1 [Example 41, 7-((4-Fluorobenzyl)oxy)-3-(2-fluoropropan-2-yl)quinoline] | < 100
11 | COC(=O)c1cnc2cc(OCc3cccc(Cl)c3)ccc2c1 [Example 26, Methyl 7-((3-chlorobenzyl)oxy)quinoline-3-carboxylate] | < 100
12 | CC(C)(O)c1cnc2cc(OCc3cc(F)c(F)c(F)c3)ccc2c1 [Example 30, 2-(7-((3,4,5-Trifluorobenzyl)oxy)quinolin-3-yl)propan-2-ol] | < 100
13 | CCOC(=O)c1cc2ccc(OCc3ccc(F)cc3)cc2nc1C [Example 22, Ethyl 7-((4-fluorobenzyl)oxy)-2-methylquinoline-3-carboxylate] | < 100
14 | CCOC(=O)Cc1cnc2cc(OCc3cccc(F)c3)ccc2c1 [Example 52, Ethyl 2-(7-((3-fluorobenzyl)oxy)quinolin-3-yl)acetate] | 1000 to 10000
15 | CC(C)(C(N)=O)c1cnc2cc(OCc3cccc(Cl)c3)ccc2c1 [Example 61, 2-(7-((3-Chlorobenzyl)oxy)quinolin-3-yl)-2-methylpropanamide] | < 100
16 | CCOC(=O)c1cnc2cc(OCc3cc(F)cc(C(F)(F)F)c3)ccc2c1 [Example 13, Ethyl 7-((3-fluoro-5-(trifluoromethyl)benzyl)oxy)quinoline-3-carboxylate] | < 100
17 | NC(=O)CC1Cc2ccc(OCc3cccc(Cl)c3)cc2NC1=O (stereo not drawn) [Example 82, 2-(7-((3-Chlorobenzyl)oxy)-2-oxo-1,2,3,4-tetrahydroquinolin-3-yl)acetamide] | < 100
18 | CCOC(=O)c1cnc2cc(OCCc3cccc(F)c3)ccc2c1 [Example 24, Ethyl 7-(3-fluorophenethoxy)quinoline-3-carboxylate] | < 100
19 | CC(=O)c1cnc2cc(OCc3ccc(F)cc3)ccc2c1 [Example 42, 1-(7-((4-Fluorobenzyl)oxy)quinolin-3-yl)ethanone] | < 100
20 | OCc1cnc2cc(OCc3cccc(Cl)c3)ccc2c1 [Example 35, (7-((3-Chlorobenzyl)oxy)quinolin-3-yl)methanol] | < 100
21 | CCOC(=O)Cc1cnc2cc(OCc3ccc(F)cc3)ccc2c1 [Example 53, Ethyl 2-(7-((4-fluorobenzyl)oxy)quinolin-3-yl)acetate] | 100 to 1000
